Experimental findings from ChEMBL document CHEMBL1201862, “PubChem BioAssay data set” (2004) are described below.

Active and inactive are the calls of the source.

Usually AC50 stands for the midpoint of the concentration-response curve, whichever way the signal moves. A word on the EC50: it is the concentration that produces a half-maximal response. One may read the IC50 as the concentration at which inhibition is half-maximal. By CC50 is commonly meant the concentration at which the toxic effect on the cells reaches its halfway point.

One test deals with INS1. Briefly: INS-1E survival protection against cytokine death – cell-based, luminescence, retest, dose response (AID 449756).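 Also: cell death triggered by IL-1 beta plus TNF-alpha plus IFN-gamma mixture; protective hits raise ATP signal compared with cytokine alone wells.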 It counts as functional. Particulars: Rattus norvegicus.
In the next test the target is T1, Caspase-6 (Homo sapiens, UniProt P55212).
T1 sequence (P55212 whole entry): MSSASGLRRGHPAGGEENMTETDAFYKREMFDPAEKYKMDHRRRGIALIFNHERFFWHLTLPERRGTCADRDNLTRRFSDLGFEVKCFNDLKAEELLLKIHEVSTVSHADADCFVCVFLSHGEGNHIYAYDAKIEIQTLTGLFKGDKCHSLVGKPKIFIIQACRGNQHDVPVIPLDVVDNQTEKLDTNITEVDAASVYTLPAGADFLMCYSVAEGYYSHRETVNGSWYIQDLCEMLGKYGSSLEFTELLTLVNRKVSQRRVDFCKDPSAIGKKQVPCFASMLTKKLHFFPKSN
Briefly: inhibition of CASP6 peptide cleavage – biochemical, VEID-R110 fluorescence, cherry-pick, dose response (AID 720632).

Test [1] is described as follows: alpha-synuclein stem-loop luciferase translation blockers – H4 neuroglioma cells, luminescence, confirmation (AID 1988). It counts as functional, cell-based.
Test [2] can be described thus: Luminescence-based counterscreen assay for KLF5 inhibitors: dose response cell-based high throughput screening assay to identify cytotoxic compounds using the IEC-6 intestinal epithelial cell line. [Related pubchem assays: 1700 (Primary screen.), 1834 (Confirmation screen.), 1858 (Summary AID.), 1905 (Counterscreen.)]. It counts as functional.
The nature of test [3]: NIH3T3 cell viability loss – ATP luminescence, mouse fibroblasts, counter-screen, dose response (AID 2010).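 Also: cells exposed to compound for about 90 hours before reading.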 It counts as functional, cell-based. For orientation: The purpose of a counterscreen is to sort out artefacts and off-target activity.
The target in the next test is Nonstructural protein 1 (Influenza A virus, UniProt Q194T2). It counts as functional, Influenza A virus (A/California/07/2009(H1N1)).
Test [4] in a line: luciferase reporter signal suppression in cells – H4 neuroglioma cells, luminescence, dose response (AID 1990). It counts as functional, cell-based. A general note: In a reporter assay the amount or activity of a reporter protein is the signal.
Test [5] is described as follows: fluconazole-exposed Candida albicans growth modulators – fluorescence, retest, confirmation (AID 2467). It counts as functional, cell-based.
Test [6] is described as follows: NIH-3T3 fibroblast cytotoxicity, dose response, cytotoxicity control, cell-based, fluorescence, Alamar Blue, secondary assay (AID 2327).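 Also: NIH-3T3 mouse fibroblasts cultured with fluconazole at 8 µg/mL.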 It counts as functional.
The nature of test [7]: Luminescence Cell-Based Dose Response HTS to Identify Inhibitors of 5'UTR Stem-Loop Driven Prion Protein mRNA Translation in H4 Neuroglioblastoma Cells. [Related pubchem assays: 1827 (Project Summary), 1813 (Primary HTS)]. It counts as functional.
Test [8] is described as follows: Trypanosoma cruzi growth suppression in host cells – NIH3T3 host cells, beta-gal luminescence, confirmation (AID 2044).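 Also: intracellular parasites grown in NIH/3T3 mouse fibroblasts as host cells; luminescent beta-galactosidase reporter signal from transgenic T. cruzi replicating inside host cells; inhibitors lower the luminescence signal.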 It counts as functional, cell-based.
Test [9] deals with T2, RNA-binding protein pos-1 (Caenorhabditis elegans, UniProt G5EF15).
T2 sequence (G5EF15 whole entry): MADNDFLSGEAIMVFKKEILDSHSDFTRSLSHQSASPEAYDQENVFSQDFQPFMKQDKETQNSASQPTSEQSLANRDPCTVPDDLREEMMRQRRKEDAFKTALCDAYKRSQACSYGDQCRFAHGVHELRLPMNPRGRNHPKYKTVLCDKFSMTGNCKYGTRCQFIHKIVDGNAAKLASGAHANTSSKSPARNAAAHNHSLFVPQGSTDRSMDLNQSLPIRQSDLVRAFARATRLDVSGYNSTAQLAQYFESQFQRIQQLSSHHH
Briefly: disruptors of C. elegans POS-1 RNA interaction – biochemical, fluorescence polarization, dose response (AID 1964).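 Also: purified POS-1 fused to maltose binding protein made in E. coli; potency of compounds blocking POS-1 binding to fluorescent RNA.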

The target of test [10] is T3, Endoribonuclease toxin MazF (Escherichia coli K-12, UniProt P0AE70).
T3 sequence (P0AE70 whole entry): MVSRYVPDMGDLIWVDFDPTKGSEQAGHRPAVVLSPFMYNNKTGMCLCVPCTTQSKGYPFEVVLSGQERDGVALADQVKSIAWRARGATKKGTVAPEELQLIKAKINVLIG
Briefly: activation of MazEF endoribonuclease cleavage – biochemical, fluorescence, single-stranded RNA substrate, uHTS hits, dose response (AID 588481). It counts as functional.

Test [11] has as its target T4, Heat shock 70 kDa protein 1A (Homo sapiens, UniProt P0DMV8). Briefly: small-molecule inhibition of Hsp70 – biochemical, TR-FRET (AID 786). In general terms: Time-resolved FRET reads energy transfer from a long-lived donor to a nearby acceptor.
The target in test [12] is T5, Zinc finger protein mex-5 (Caenorhabditis elegans, UniProt Q9XUB2).
T5 sequence (Q9XUB2 whole entry): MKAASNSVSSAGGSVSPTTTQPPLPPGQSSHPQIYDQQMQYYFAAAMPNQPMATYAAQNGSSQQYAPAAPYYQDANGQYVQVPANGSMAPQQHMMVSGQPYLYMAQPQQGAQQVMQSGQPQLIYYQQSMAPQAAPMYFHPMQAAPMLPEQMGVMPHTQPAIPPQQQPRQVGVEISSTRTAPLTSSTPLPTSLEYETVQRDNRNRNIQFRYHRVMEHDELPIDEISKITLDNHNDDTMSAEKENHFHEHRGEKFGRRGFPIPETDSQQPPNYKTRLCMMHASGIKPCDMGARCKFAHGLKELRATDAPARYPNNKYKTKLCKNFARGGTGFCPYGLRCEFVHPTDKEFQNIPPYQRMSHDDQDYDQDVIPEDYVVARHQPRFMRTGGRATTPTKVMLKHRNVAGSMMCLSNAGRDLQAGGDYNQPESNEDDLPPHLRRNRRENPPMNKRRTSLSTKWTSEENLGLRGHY
In words: potency of MEX-5 RNA-binding blockers – biochemical, C. elegans, fluorescence polarization, dose response (AID 1960).

Test [13] deals with T4, Heat shock 70 kDa protein 1A. In words: small molecules displacing fluorescent ligand from Hsp70 – biochemical, fluorescence polarization, primary screen (AID 583).
The target in test [14] is T3, Endoribonuclease toxin MazF. In words: substrate-only fluorescence increase artefacts – biochemical, single-stranded RNase substrate, counter-screen for MazEF activator project, dose response (AID 588502). It counts as functional.
Test [15] deals with T6, Rac GTPase-activating protein 1 (Homo sapiens, UniProt Q9H0H5).
T6 sequence (Q9H0H5 whole entry): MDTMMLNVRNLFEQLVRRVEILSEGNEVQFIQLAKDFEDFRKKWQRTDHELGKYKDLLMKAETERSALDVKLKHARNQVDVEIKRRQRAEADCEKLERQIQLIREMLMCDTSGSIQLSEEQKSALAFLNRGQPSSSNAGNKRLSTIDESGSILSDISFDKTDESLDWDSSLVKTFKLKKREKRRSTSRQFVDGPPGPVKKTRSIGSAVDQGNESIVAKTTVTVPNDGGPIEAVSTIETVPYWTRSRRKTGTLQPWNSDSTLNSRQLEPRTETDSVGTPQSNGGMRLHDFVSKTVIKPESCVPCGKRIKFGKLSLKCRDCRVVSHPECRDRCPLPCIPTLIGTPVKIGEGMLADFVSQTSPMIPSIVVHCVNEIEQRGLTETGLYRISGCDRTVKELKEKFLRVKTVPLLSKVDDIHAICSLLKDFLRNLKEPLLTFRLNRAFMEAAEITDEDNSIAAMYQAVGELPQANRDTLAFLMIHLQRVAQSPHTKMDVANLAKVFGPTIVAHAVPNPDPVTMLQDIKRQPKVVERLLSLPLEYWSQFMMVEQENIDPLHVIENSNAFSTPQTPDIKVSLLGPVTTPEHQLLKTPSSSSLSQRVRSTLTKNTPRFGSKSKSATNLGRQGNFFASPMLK
In words: blockers of MgcRacGAP-driven Rac1 GTP hydrolysis – biochemical, ADP Hunter fluorescence, primary and confirmatory, confirmation (AID 624330). It counts as functional.

Test [16] deals with T7, Kappa-type opioid receptor (Homo sapiens, UniProt P41145). It counts as functional.
The target in test [17] is T7, Kappa-type opioid receptor. It counts as functional. The source holds these as a separate data set.
Test [18] can be described thus: viability loss in HeLa cells – cytotoxicity control for MgcRacGAP inhibitor project, dose response (AID 624300). It counts as functional.
Test [19] concerns the target Matrix metalloproteinase-14 (Homo sapiens, UniProt P50281). Briefly: Dose Response confirmation of uHTS hits for a small molecule inhibitors of MT1-MMP activation in a fluorescence assay set 1. It counts as functional.
Test [20] is described as follows: mitochondrial function rescue without frataxin homolog – Friedreich's ataxia, plus single-dose screen, dose response (AID 1465).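 Also: yeast depleted of Yfh1p frataxin homolog grown on glycerol needing respiration; WST-1 tetrazolium dye reduction as measure of cellular dehydrogenase metabolic activity.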 It counts as functional.
The target in another test is Beta-galactosidase (Escherichia coli, UniProt Q8VNN2). It counts as functional.
Test [21] addresses T8, Neuropeptide Y receptor type 2 (Homo sapiens, UniProt P49146).
T8 sequence (P49146 whole entry): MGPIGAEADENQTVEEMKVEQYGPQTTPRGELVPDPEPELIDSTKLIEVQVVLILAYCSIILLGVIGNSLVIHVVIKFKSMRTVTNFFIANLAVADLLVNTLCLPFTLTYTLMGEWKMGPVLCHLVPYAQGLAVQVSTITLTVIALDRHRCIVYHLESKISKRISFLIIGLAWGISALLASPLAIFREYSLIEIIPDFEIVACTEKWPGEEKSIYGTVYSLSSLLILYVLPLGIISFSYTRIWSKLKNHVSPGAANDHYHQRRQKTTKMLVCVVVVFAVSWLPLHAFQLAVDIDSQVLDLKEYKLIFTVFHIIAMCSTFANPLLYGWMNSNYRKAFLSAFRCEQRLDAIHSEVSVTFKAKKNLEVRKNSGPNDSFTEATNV
In words: Fluorescence-based cell-based high-throughput dose response assay for agonists of NPY-Y2. [Related pubchem assays: 1703 (Screening assay (CNGC inhibitors).), 1359 (Screening assay (NPY-Y2 potentiators or agonists).), 1304 (Screening assay (NPY-Y1 potentiators or agonists).), 1710 (Screening assay (NPY-Y2 agonists).), 1791 (Summary AID.)]. It counts as functional.

The target of test [22] is T9, Neuropeptide Y receptor type 1 (Homo sapiens, UniProt P25929).
T9 sequence (P25929 whole entry): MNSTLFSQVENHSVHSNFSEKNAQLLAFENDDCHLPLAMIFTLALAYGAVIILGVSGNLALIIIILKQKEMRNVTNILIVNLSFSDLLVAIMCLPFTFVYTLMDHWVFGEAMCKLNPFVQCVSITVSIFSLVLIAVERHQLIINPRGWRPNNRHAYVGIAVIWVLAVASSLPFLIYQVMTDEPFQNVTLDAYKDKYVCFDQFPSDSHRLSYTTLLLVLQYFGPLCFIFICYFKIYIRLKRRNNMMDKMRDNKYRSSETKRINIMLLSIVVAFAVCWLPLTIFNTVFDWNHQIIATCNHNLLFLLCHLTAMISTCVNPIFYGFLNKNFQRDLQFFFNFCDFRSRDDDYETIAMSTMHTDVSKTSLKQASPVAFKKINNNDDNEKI
Briefly: Fluorescence-based counterscreen for agonists of NPY-Y2: cell-based high-throughput dose response assay for agonists of NPY-Y1. It counts as functional.

For the next test, the system named is HEK293. Briefly: Fluorescence-based counterscreen for potentiators or agonists of NPY-Y2: cell-based high-throughput dose response assay to identify inhibitors of cyclic nucleotide gated ion channel (CNGC) activity. In this assay, the parental HEK293 cell line transfected with a cyclic-nucleotide gated ion channel (CNGC)-based cAMP sensor is used to measure inhibition of isoproterenol-induced CNGC activity by test compound. It counts as functional. As to conditions: Homo sapiens.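 Also: stimulus is 1 µM isoproterenol at EC100 plus PDE inhibitor Ro 20-1724 at 25 µM.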

A short description of test [23]: antiviral protection against BTV-induced cell death – arbovirus, BSR cells, confirmation (AID 1250).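 Also: protection from viral cytopathic effect measured as cell viability by ATP luminescence.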 It counts as functional.

T7 sequence (P41145 whole entry): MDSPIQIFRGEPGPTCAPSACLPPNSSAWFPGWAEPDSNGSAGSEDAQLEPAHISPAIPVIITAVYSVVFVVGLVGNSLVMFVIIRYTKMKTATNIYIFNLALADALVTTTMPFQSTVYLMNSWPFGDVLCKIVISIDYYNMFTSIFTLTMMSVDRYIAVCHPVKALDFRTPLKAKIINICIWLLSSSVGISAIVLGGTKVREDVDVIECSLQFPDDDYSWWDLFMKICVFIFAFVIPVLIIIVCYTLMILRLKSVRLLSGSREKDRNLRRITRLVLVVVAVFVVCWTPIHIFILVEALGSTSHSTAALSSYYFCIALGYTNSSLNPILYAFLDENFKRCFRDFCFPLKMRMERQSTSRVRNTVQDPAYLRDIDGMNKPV
T4 sequence (P0DMV8 whole entry): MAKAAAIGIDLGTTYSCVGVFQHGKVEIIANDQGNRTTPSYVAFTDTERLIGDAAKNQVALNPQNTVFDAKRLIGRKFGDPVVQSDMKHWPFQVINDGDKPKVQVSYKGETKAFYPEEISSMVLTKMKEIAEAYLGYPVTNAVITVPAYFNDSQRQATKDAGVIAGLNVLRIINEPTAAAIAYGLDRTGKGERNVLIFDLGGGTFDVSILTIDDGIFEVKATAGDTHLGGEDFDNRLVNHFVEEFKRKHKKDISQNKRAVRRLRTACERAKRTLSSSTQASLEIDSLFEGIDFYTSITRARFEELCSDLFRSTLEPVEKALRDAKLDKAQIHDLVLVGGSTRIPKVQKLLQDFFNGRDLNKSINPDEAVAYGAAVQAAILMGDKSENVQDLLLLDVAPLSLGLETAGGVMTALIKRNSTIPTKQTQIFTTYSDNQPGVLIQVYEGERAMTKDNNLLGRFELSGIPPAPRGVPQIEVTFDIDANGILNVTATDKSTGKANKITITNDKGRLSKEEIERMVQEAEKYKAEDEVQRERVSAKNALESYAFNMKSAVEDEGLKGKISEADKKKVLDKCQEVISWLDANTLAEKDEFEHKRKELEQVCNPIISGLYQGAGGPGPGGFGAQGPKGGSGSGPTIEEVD
Beta-galactosidase, sequence (Q8VNN2 whole entry): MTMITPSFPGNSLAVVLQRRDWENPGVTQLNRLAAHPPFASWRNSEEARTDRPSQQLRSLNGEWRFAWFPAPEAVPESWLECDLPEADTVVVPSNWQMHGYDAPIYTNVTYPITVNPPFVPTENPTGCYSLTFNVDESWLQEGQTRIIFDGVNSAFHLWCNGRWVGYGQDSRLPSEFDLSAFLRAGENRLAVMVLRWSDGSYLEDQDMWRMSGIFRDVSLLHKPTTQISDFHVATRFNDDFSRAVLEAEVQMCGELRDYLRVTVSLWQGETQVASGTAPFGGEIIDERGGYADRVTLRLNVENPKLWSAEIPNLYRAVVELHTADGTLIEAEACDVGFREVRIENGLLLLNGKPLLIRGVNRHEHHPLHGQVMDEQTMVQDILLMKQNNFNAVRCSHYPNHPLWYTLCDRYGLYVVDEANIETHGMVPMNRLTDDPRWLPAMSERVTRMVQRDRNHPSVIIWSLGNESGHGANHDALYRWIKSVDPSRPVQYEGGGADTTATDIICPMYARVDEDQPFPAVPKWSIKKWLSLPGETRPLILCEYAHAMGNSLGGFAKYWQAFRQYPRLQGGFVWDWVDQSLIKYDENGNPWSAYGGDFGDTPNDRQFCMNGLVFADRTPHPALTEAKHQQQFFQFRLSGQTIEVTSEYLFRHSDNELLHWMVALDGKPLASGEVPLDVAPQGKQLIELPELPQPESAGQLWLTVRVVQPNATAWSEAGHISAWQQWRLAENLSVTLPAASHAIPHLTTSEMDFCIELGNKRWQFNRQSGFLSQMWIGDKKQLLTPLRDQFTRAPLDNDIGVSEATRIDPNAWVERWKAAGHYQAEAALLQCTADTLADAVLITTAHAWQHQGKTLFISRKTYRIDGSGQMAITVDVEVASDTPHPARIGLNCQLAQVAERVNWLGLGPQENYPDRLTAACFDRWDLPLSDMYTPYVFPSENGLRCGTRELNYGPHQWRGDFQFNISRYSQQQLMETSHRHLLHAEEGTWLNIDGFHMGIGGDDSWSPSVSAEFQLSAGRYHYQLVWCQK
Nonstructural protein 1, sequence (Q194T2 whole entry): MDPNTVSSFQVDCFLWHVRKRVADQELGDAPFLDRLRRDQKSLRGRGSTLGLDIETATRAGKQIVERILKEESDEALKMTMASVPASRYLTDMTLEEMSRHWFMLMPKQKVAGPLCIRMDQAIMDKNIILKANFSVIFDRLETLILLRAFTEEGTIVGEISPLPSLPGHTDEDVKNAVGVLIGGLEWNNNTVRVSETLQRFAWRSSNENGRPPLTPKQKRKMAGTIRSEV

For `NS(=O)(=O)c1ccc(N=Nc2ccc(O)c3ncccc23)cc1`, the AC50 was 3.45 µM (active) in the test with INS1 and 1.58 µM (active) on Caspase-6. Further, the EC50 in test [1] is 5.67 µM (active); in test [3] it was 10.4 µM (active); in test [4], 9.04 µM (active); in test [5], 1.95 µM (active); in test [6] it was 32.2 µM (active); in [7] it was 8.29 µM (active). In addition, the EC50 in test [8] is 4.07 µM (active). In addition, the IC50 is 10.7 µM (not active) in test [2] and 7.62 µM (active) on Nonstructural protein 1.

As for `CCOn1c(=O)c(-c2cc3ccccc3o2)[n+]([O-])c2ccccc21`, the EC50 in test [9] was 13.4 µM (inconclusive); in test [10], > 99 µM (inactive); in test [12], 180 µM (inconclusive); in test [14], 30.9 µM (inactive). The half-maximal inhibitory concentration (IC50) in [11] and in test [13] was > 100 µM (not active) throughout.

In the case of `CC1=NN(c2ccccc2)C(=O)/C1=C/C=C/C=C/N(C)C`, the IC50 in test [15] was 68.1 µM (active); in [16], over 32 µM; in test [17] it was 21.6 µM (inactive); in [19], 23.3 µM (inactive). Further, in test [18], the CC50 was 100 µM (active). Besides, the results for the EC50 (in test [20]; on Beta-galactosidase) were > 100 µM (active) and 14.8 µM (active), respectively.

In the case of `O=C(Cc1ccc(Cl)cc1)Nc1cccc(S(=O)(=O)Nc2ccccc2F)c1`, the EC50 in test [21] is given as 15.7 µM (not active); in test [22], 15.7 µM (not active); in the test on HEK293, 10.2 µM (not active).

Regarding `Cc1ccc(C2C=C(c3ccc4c(c3)OCO4)Nc3ncnn32)cc1` (stereo not drawn), in test [23], the IC50 is 38.9 µM (active).
